Reference: US12485089B1, “Adhering lozenge with high amount of sparsely soluble active ingredient” (Quest Products, LLC, priority 2025, dated 2025)

Assay: Time to complete dissolution of compressed tablets of bulking agents/compression binders in water
Assay type: physicochemical
Details: 750 mg tablet, 12 mm diameter, pressed at 32 kN, 1.5 L water in 2 L beaker, room temperature (69° F.)
From the text: To compare the speed of dissolution of any ingredients acting as a binder and/or bulking agent to the speed of dissolution of isomalt, a tablet can be formed of each and the time of dissolution for each can be measured. As used herein, the term “rate of dissolution” when comparing one or more binder and bulking agent ingredients to isomalt refers to the following procedure. The tablets should have the same diameter, shape, and weight and should be prepared by pressing with the same compression force (e.g., 32 kN) using a tablet press. Two equal beakers (e.g., 2 L) each containing an equal amount of distilled water (e.g., 1.5 L) and each at the same room temperature (i.e., at 69° F.) and atmospheric pressure are prepared. One tablet containing isomalt (commercially available FCC or USP grade isomalt particles) is placed in one of the beakers of water. The other tablet formed of the test binder and/or bulking agent are placed in the other of the beakers of water. The two beakers are then visually observed to determine which of the tablets dissolves completely first.
To identify suitable bulking agents and compression binders that dissolve quickly enough to allow suitable release of the preferred amount of antacid particles having low solubility in saliva, tablets of equal diameter (12 mm) and a weight of 750 mg±4 mg were made with commercially available particles of the bulking agents and/or compression binders listed in the table below, each compressed using a tablet press by placing the ingredients in a die and pressing with an equal pressure of 32 kN±3 kN to form the tablets. The tablets were simultaneously placed in equal size beakers (2 L) each containing an equal amount of water (1.5 L±15 mL) at room temperature (69° F.) and the time to complete dissolution was measured for each tablet. The dissolution times are shown below.

Compound | Dissolution time [min]
OC[C@@H](O)[C@@H](O)[C@H](O)[C@H](O)CO [Mannitol] | 50
OC[C@@H](O)[C@@H](O)[C@H](O)[C@@H](O)CO [Sorbitol] | 20
Isomalt | 38
OC[C@@H](O)[C@@H](O[C@H]1O[C@H](CO)[C@@H](O)[C@H](O)[C@H]1O)[C@H](O)[C@@H](O)CO [Maltitol] | 29
